Measurements taken from patent publication US10980232B2, “Herbicidal composition comprising cinmethylin and pyroxasulfone” (BASF Agro B.V., priority 2015, dated 2021).

Key:
Type in all cases: in vivo
Settings in all cases: 20 DAT
AVEFA (Avena fatua) [1] = assay: Greenhouse postemergence herbicidal activity, AVEFA
Method: (§1) The test plants have been seeded, separately for each species, in plastic containers in sandy loamy soil containing 5% of organic matter.
(§2) For the post emergence treatment, the plants were first grown to the 2 leaf station (GS 12). Here, the herbicidal compositions were suspended or emulsified in water as distribution medium and sprayed using finely distributing nozzels.
(§3) The plants have been cultivated due to their individual requirements at 10-25° C. and 20-35° C. The plants were irrigated due to their necessity.
(§4) The racemic mixture (±)-2-exo-(2-Methylbenzyloxy)-1-methyl-4-isopropyl-7-oxabicyclo[2.2.1]heptane was used as herbicide A and formulated as emulsifiable concentrates with an active ingredient concentration of 50 g/l, 100 g/l or 750 g/l respectively.
(§5) Pyroxasulfone (herbicide B) was used as a water dispersible granule (85% WG).
(§6) In the following experiments, the herbicidal activity for the individual herbicidal compositions (solo and mixture applications) was assessed 20 days after treatment (DAT).
(§7) The evaluation for the damage on undesired weeds caused by the chemical compositions was carried out using a scale from 0 to 100%, compared to the untreated control plants. Here, 0 means no damage and 100 means complete destruction of the plants.
(§8) E=X+Y−(X·Y/100) where X=effect in percent using herbicide A at an application rate a; • Y=effect in percent using herbicide B at application rate b; • E=expected effect (in %) of herbicide A+herbicide B at application rates a+b.
(§9) The value E corresponds to the effect (plant damage or injury) which is to be expected if the activity of the individual compounds is additive. If the observed effect is higher than the value E calculated according to the Colby equation, a synergistic effect is present.

[2] = test system: ABUTH (Abutilon theoprasti); assay: Greenhouse preemergence herbicidal activity, ABUTH
Method: as §1
(§10) The containers were irrigated gently to promote germination and growth and subsequently covered with transparent plastic hoods until the plants had rooted.
as §3, §4, §5, §6, §7, §8, §9

[3] = test system: AMARE (Amaranthus retroflexus); assay: Greenhouse postemergence herbicidal activity, AMARE
Method: as §1, §2, §3, §4, §5
(§11) In the following experiments, the herbicidal activity for the individual herbicidal compositions (solo and mixture applications) was assessed 20 days after treatment (DAT). […]
as §9

[4] = test system: POLCO (Polygonum convolvulus); assay: Greenhouse preemergence herbicidal activity, POLCO
Method: as §1, §10, §3, §4, §5, §6, §7, §8, §9

AVEFA (Avena fatua) [5] = assay: Greenhouse preemergence herbicidal activity, AVEFA
Method: as §1, §10, §3, §4, §5, §6, §7, §8, §9

[6] = test system: LOLMU (Lolium multiflorum); assay: Greenhouse postemergence herbicidal activity, LOLMU
Method: as §1, §2, §3, §4, §5, §6, §7, §8, §9

[7] = test system: CHEAL (Chenopodium album); assay: Greenhouse preemergence herbicidal activity, CHEAL
Method: as §1, §10, §3, §4, §5, §6, §7, §8, §9

STEME (Stellaria media) [8] = assay: Greenhouse postemergence herbicidal activity, STEME
Method: as §1, §2, §3, §4, §5, §6, §7, §8, §9

GALAP (Galium aparine) = assay: Greenhouse preemergence herbicidal activity, GALAP
Method: as §1, §10, §3, §4, §5, §6, §7, §8, §9

[9] = test system: LOLMU (Lolium multiflorum); assay: Greenhouse preemergence herbicidal activity, LOLMU
Method: as §1, §10, §3, §4, §5, §6, §7, §8, §9

[10] = test system: SORHA (Sorghum halepense); assay: Greenhouse postemergence herbicidal activity, SORHA
Method: as §1, §2, §3, §4, §5, §11, §9

[11] = test system: GERDI (Geranium dissectum); assay: Greenhouse preemergence herbicidal activity, GERDI
Method: as §1, §10, §3, §4, §5, §6, §7, §8, §9

[12] = test system: ANTAR (Anthemis arvensis); assay: Greenhouse preemergence herbicidal activity, ANTAR
Method: as §1, §10, §3, §4, §5, §6, §7, §8, §9

[13] = test system: CHEAL (Chenopodium album); assay: Greenhouse postemergence herbicidal activity, CHEAL
Method: as §1, §2, §3, §4, §5, §6, §7, §8, §9

[14] = test system: POLCO (Polygonum convolvulus); assay: Greenhouse postemergence herbicidal activity, POLCO
Method: as §1, §2, §3, §4, §5, §11, §9

STEME (Stellaria media) [15] = assay: Greenhouse preemergence herbicidal activity, STEME
Method: as §1, §10, §3, §4, §5, §6, §7, §8, §9

[16] = test system: ANTAR (Anthemis arvensis); assay: Greenhouse postemergence herbicidal activity, ANTAR
Method: as §1, §2, §3, §4, §5, §6, §7, §8, §9

[17] = test system: AMARE (Amaranthus retroflexus); assay: Greenhouse preemergence herbicidal activity, AMARE
Method: as §1, §10, §3, §4, §5, §6
The evaluation for the damage on undesired weeds caused by the chemical compositions was carried out using a scale from 0 to 100%, compared to the untreated control plants. […]
as §9

[18] = pyroxasulfone solo 11.25 g ai/ha
[19] = pyroxasulfone solo 22.5 g ai/ha

Cc1ccccc1CO[C@@H]1C[C@@]2(C(C)C)CC[C@]1(C)O2 (racemic) [herbicide A, (±)-2-exo-(2-Methylbenzyloxy)-1-methyl-4-isopropyl-7-oxabicyclo[2.2.1]heptane]
herbicidal activity (AVEFA (Avena fatua) [1]; herbicide A solo 43.75 g ai/ha): 25%
herbicidal activity (AVEFA (Avena fatua) [1]; herbicide A solo 87.5 g ai/ha): 30%
herbicidal activity (AVEFA (Avena fatua) [1]; herbicide A solo 125 g ai/ha): 60%
herbicidal activity ([2]; herbicide A solo 37.5 g ai/ha): 0%
herbicidal activity ([2]; herbicide A solo 75 g ai/ha): 0%
herbicidal activity ([2]; herbicide A solo 150 g ai/ha): 0%
herbicidal activity ([2]; herbicide A solo 300 g ai/ha): 0%
herbicidal activity ([3]; herbicide A solo 250 g ai/ha): 25%
herbicidal activity ([4]; herbicide A solo 37.5 g ai/ha): 0%
herbicidal activity ([4]; herbicide A solo 50 g ai/ha): 0%
herbicidal activity ([4]; herbicide A solo 75 g ai/ha): 0%
herbicidal activity ([4]; herbicide A solo 100 g ai/ha): 0%
herbicidal activity ([4]; herbicide A solo 200 g ai/ha): 0%
herbicidal activity ([4]; herbicide A solo 300 g ai/ha): 0%
herbicidal activity (AVEFA (Avena fatua) [5]; herbicide A solo 37.5 g ai/ha): 0%
herbicidal activity (AVEFA (Avena fatua) [5]; herbicide A solo 50 g ai/ha): 0%
herbicidal activity (AVEFA (Avena fatua) [5]; herbicide A solo 75 g ai/ha): 20%
herbicidal activity (AVEFA (Avena fatua) [5]; herbicide A solo 150 g ai/ha): 40%
herbicidal activity ([6]; herbicide A solo 43.75 g ai/ha): 0%
herbicidal activity ([6]; herbicide A solo 62.5 g ai/ha): 0%
herbicidal activity ([6]; herbicide A solo 87.5 g ai/ha): 0%
herbicidal activity ([6]; herbicide A solo 125 g ai/ha): 0%
herbicidal activity ([7]; herbicide A solo 25 g ai/ha): 20%
herbicidal activity ([7]; herbicide A solo 37.5 g ai/ha): 20%
herbicidal activity ([7]; herbicide A solo 50 g ai/ha): 30%
herbicidal activity ([7]; herbicide A solo 75 g ai/ha): 20%
herbicidal activity (STEME (Stellaria media) [8]; herbicide A solo 43.75 g ai/ha): 0%
herbicidal activity (STEME (Stellaria media) [8]; herbicide A solo 62.5 g ai/ha): 25%
herbicidal activity (STEME (Stellaria media) [8]; herbicide A solo 125 g ai/ha): 65%
herbicidal activity (STEME (Stellaria media) [8]; herbicide A solo 175 g ai/ha): 40%
herbicidal activity (STEME (Stellaria media) [8]; herbicide A solo 250 g ai/ha): 70%
herbicidal activity (GALAP (Galium aparine); herbicide A solo 25 g ai/ha): 0%
herbicidal activity (GALAP (Galium aparine); herbicide A solo 50 g ai/ha): 0%
herbicidal activity (GALAP (Galium aparine); herbicide A solo 200 g ai/ha): 30%
herbicidal activity (GALAP (Galium aparine); herbicide A solo 300 g ai/ha): 30%
herbicidal activity ([9]; herbicide A solo 25 g ai/ha): 50%
herbicidal activity ([9]; herbicide A solo 37.5 g ai/ha): 60%
herbicidal activity ([10]; herbicide A solo 62.5 g ai/ha): 40%
herbicidal activity ([11]; herbicide A solo 50 g ai/ha): 50%
herbicidal activity ([11]; herbicide A solo 100 g ai/ha): 50%
herbicidal activity ([11]; herbicide A solo 150 g ai/ha): 50%
herbicidal activity ([12]; herbicide A solo 25 g ai/ha): 0%
herbicidal activity ([12]; herbicide A solo 37.5 g ai/ha): 0%
herbicidal activity ([12]; herbicide A solo 50 g ai/ha): 0%
herbicidal activity ([12]; herbicide A solo 75 g ai/ha): 0%
herbicidal activity ([12]; herbicide A solo 100 g ai/ha): 0%
herbicidal activity ([12]; herbicide A solo 150 g ai/ha): 0%
herbicidal activity ([12]; herbicide A solo 200 g ai/ha): 0%
herbicidal activity ([12]; herbicide A solo 300 g ai/ha): 0%
herbicidal activity ([13]; herbicide A solo 62.5 g ai/ha): 30%
herbicidal activity ([13]; herbicide A solo 87.5 g ai/ha): 65%
herbicidal activity ([13]; herbicide A solo 125 g ai/ha): 50%
herbicidal activity ([13]; herbicide A solo 175 g ai/ha): 60%
herbicidal activity ([13]; herbicide A solo 500 g ai/ha): 75%
herbicidal activity ([14]; herbicide A solo 250 g ai/ha): 40%
herbicidal activity (STEME (Stellaria media) [15]; herbicide A solo 25 g ai/ha): 20%
herbicidal activity (STEME (Stellaria media) [15]; herbicide A solo 37.5 g ai/ha): 0%
herbicidal activity (STEME (Stellaria media) [15]; herbicide A solo 50 g ai/ha): 20%
herbicidal activity (STEME (Stellaria media) [15]; herbicide A solo 75 g ai/ha): 20%
herbicidal activity ([16]; herbicide A solo 62.5 g ai/ha): 40%
herbicidal activity ([16]; herbicide A solo 175 g ai/ha): 90%
herbicidal activity ([16]; herbicide A solo 250 g ai/ha): 90%
herbicidal activity ([17]; herbicide A solo 25 g ai/ha): 0%

Cn1nc(C(F)(F)F)c(CS(=O)(=O)C2=NOC(C)(C)C2)c1OC(F)F [pyroxasulfone, 3-[5-(difluoromethoxy)-1-methyl-3-(trifluoromethyl)pyrazol-4-ylmethylsulfonyl]-4,5-dihydro-5,5-dimethyl-1,2-oxazole]
herbicidal activity (AVEFA (Avena fatua) [1]; [18]): 50%
herbicidal activity (AVEFA (Avena fatua) [1]; [19]): 50%
herbicidal activity ([2]; pyroxasulfone solo 10 g ai/ha): 0%
herbicidal activity ([2]; pyroxasulfone solo 20 g ai/ha): 30%
herbicidal activity ([2]; pyroxasulfone solo 30 g ai/ha): 50%
herbicidal activity ([2]; pyroxasulfone solo 60 g ai/ha): 50%
herbicidal activity ([2]; pyroxasulfone solo 120 g ai/ha): 98%
herbicidal activity ([3]; pyroxasulfone solo 45 g ai/ha): 25%
herbicidal activity ([4]; pyroxasulfone solo 15 g ai/ha): 0%
herbicidal activity ([4]; pyroxasulfone solo 20 g ai/ha): 0%
herbicidal activity ([4]; pyroxasulfone solo 30 g ai/ha): 20%
herbicidal activity ([4]; pyroxasulfone solo 60 g ai/ha): 80%
herbicidal activity ([4]; pyroxasulfone solo 80 g ai/ha): 80%
herbicidal activity ([4]; pyroxasulfone solo 120 g ai/ha): 90%
herbicidal activity (AVEFA (Avena fatua) [5]; pyroxasulfone solo 10 g ai/ha): 60%
herbicidal activity (AVEFA (Avena fatua) [5]; pyroxasulfone solo 15 g ai/ha): 65%
herbicidal activity (AVEFA (Avena fatua) [5]; pyroxasulfone solo 20 g ai/ha): 75%
herbicidal activity (AVEFA (Avena fatua) [5]; pyroxasulfone solo 30 g ai/ha): 80%
herbicidal activity (AVEFA (Avena fatua) [5]; pyroxasulfone solo 40 g ai/ha): 80%
herbicidal activity (AVEFA (Avena fatua) [5]; pyroxasulfone solo 60 g ai/ha): 95%
herbicidal activity [6, 18]: 55%
herbicidal activity ([6]; pyroxasulfone solo 15 g ai/ha): 70%
herbicidal activity [6, 19]: 55%
herbicidal activity ([7]; pyroxasulfone solo 10 g ai/ha): 50%
herbicidal activity ([7]; pyroxasulfone solo 20 g ai/ha): 90%
herbicidal activity (STEME (Stellaria media) [8]; [18]): 0%
herbicidal activity (STEME (Stellaria media) [8]; pyroxasulfone solo 15 g ai/ha): 40%
herbicidal activity (STEME (Stellaria media) [8]; [19]): 0%
herbicidal activity (STEME (Stellaria media) [8]; pyroxasulfone solo 45 g ai/ha): 45%
herbicidal activity (STEME (Stellaria media) [8]; pyroxasulfone solo 60 g ai/ha): 80%
herbicidal activity (GALAP (Galium aparine); pyroxasulfone solo 10 g ai/ha): 30%
herbicidal activity (GALAP (Galium aparine); pyroxasulfone solo 15 g ai/ha): 0%
herbicidal activity (GALAP (Galium aparine); pyroxasulfone solo 20 g ai/ha): 70%
herbicidal activity (GALAP (Galium aparine); pyroxasulfone solo 80 g ai/ha): 98%
herbicidal activity ([9]; pyroxasulfone solo 10 g ai/ha): 80%
herbicidal activity ([9]; pyroxasulfone solo 15 g ai/ha): 98%
herbicidal activity [10, 18]: 70%
herbicidal activity ([11]; pyroxasulfone solo 30 g ai/ha): 75%
herbicidal activity ([11]; pyroxasulfone solo 40 g ai/ha): 75%
herbicidal activity ([12]; pyroxasulfone solo 15 g ai/ha): 20%
herbicidal activity ([12]; pyroxasulfone solo 20 g ai/ha): 60%
herbicidal activity ([12]; pyroxasulfone solo 30 g ai/ha): 85%
herbicidal activity ([12]; pyroxasulfone solo 40 g ai/ha): 70%
herbicidal activity ([12]; pyroxasulfone solo 60 g ai/ha): 95%
herbicidal activity ([12]; pyroxasulfone solo 80 g ai/ha): 75%
herbicidal activity [13, 18]: 80%
herbicidal activity ([13]; pyroxasulfone solo 15 g ai/ha): 85%
herbicidal activity [13, 19]: 65%
herbicidal activity ([13]; pyroxasulfone solo 45 g ai/ha): 85%
herbicidal activity ([13]; pyroxasulfone solo 90 g ai/ha): 95%
herbicidal activity ([13]; pyroxasulfone solo 120 g ai/ha): 95%
herbicidal activity ([14]; pyroxasulfone solo 45 g ai/ha): 80%
herbicidal activity (STEME (Stellaria media) [15]; pyroxasulfone solo 10 g ai/ha): 75%
herbicidal activity (STEME (Stellaria media) [15]; pyroxasulfone solo 15 g ai/ha): 98%
herbicidal activity (STEME (Stellaria media) [15]; pyroxasulfone solo 30 g ai/ha): 98%
herbicidal activity ([16]; pyroxasulfone solo 15 g ai/ha): 40%
herbicidal activity ([16]; pyroxasulfone solo 60 g ai/ha): 90%
herbicidal activity ([17]; pyroxasulfone solo 10 g ai/ha): 95%
